Results: ChEMBL document CHEMBL1201862, “PubChem BioAssay data set” (2004)
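A five-concentration, 48-hour dose response in 96-well plates underlies each endpoint, interpolated linearly between surrounding concentrations. At the GI50, growth is halved.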 Calls of active or inactive are those of the source. Cut-off read from the data, not from the text of the source: active = GI50 up to about 1.1 µM and inactive = higher.

Key:
Experiment in all cases: NCI anticancer screen, dose series, 48 h
EKVX = system: EKVX
HCT-116 = system: HCT-116
SF-295 = system: SF-295
UO-31 = system: UO-31
786-0 = system: 786-0
K562 = system: K562
OVCAR-8 = system: OVCAR-8
SW-620 = system: SW-620
SK-MEL-28 = system: SK-MEL-28
SK-MEL-5 = system: SK-MEL-5
RXF 393 = system: RXF 393
U-251 = system: U-251
IGROV-1 = system: IGROV-1
T47D = system: T47D
COLO 205 = system: COLO 205
KM12 = system: KM12
SNB-75 = system: SNB-75
MOLT-4 = system: MOLT-4
SF-539 = system: SF-539
MDA-MB-231 = system: MDA-MB-231
SF-268 = system: SF-268
HOP-92 = system: HOP-92
SK-MEL-2 = system: SK-MEL-2
OVCAR-3 = system: OVCAR-3
NCI/ADR-RES = system: NCI/ADR-RES
SN12C = system: SN12C
A549 = system: A549
OVCAR-4 = system: OVCAR-4
SNB-19 = system: SNB-19
HL-60 = system: HL-60
NCI-H226 = system: NCI-H226
TK-10 = system: TK-10
HT-29 = system: HT-29
Hs-578T = system: Hs-578T
NCI-H522 = system: NCI-H522
HCT-15 = system: HCT-15
MDA-MB-435 = system: MDA-MB-435
CAKI-1 = system: CAKI-1
HCC 2998 = system: HCC 2998
SK-OV-3 = system: SK-OV-3
RPMI-8226 = system: RPMI-8226
PC-3 = system: PC-3
ACHN = system: ACHN
NCI-H460 = system: NCI-H460
DU-145 = system: DU-145
A498 = system: A498
BT-549 = system: BT-549
M14 = system: M14
UACC-62 = system: UACC-62
HOP-62 = system: HOP-62
NCI-H23 = system: NCI-H23
OVCAR-5 = system: OVCAR-5
MCF7 = system: MCF7
UACC-257 = system: UACC-257
LOX IMVI = system: LOX IMVI
SR = system: SR
Malme-3M = system: Malme-3M
CCRF-CEM = system: CCRF-CEM

## CC(=O)OC1CC2C(C)(C)C(=O)C=CC2(C)C2CCC3(C)C(c4ccoc4)OC(=O)C4OC43C12C (stereo unspecified)
EKVX
  GI50: 22.5 µM (inactive)
HCT-116
  GI50: 2.4 µM (inactive)
SF-295
  GI50: 14.6 µM (inactive)
UO-31
  GI50: 4.23 µM (inactive)
786-0
  GI50: 9.46 µM (inactive)
K562
  GI50: 3.54 µM (inactive)
OVCAR-8
  GI50: 8.04 µM (inactive)
SW-620
  GI50: 6.28 µM (inactive)
SK-MEL-28
  GI50: 20.4 µM (inactive)
SK-MEL-5
  GI50: 5.62 µM (inactive)
RXF 393
  GI50: 4.66 µM (inactive)
U-251
  GI50: 6.14 µM (inactive)
IGROV-1
  GI50: 10.1 µM (inactive)
T47D
  GI50: 12.5 µM (inactive)
COLO 205
  GI50: 7.5 µM (inactive)
KM12
  GI50: 3.92 µM (inactive)
SNB-75
  GI50: > 100 µM (inactive)
MOLT-4
  GI50: 8.2 µM (inactive)
SF-539
  GI50: 6.55 µM (inactive)
MDA-MB-231
  GI50: 3.85 µM (inactive)
SF-268
  GI50: 28.5 µM (inactive)
HOP-92
  GI50: 14.5 µM (inactive)
SK-MEL-2
  GI50: 13 µM (inactive)
OVCAR-3
  GI50: 21.6 µM (inactive)
NCI/ADR-RES
  GI50: 5.32 µM (inactive)
SN12C
  GI50: 4.21 µM (inactive)
A549
  GI50: 7.66 µM (inactive)
OVCAR-4
  GI50: 32.4 µM (inactive)
SNB-19
  GI50: 19.5 µM (inactive)
HL-60
  GI50: 5.55 µM (inactive)
NCI-H226
  GI50: 22.2 µM (inactive)
TK-10
  GI50: 95.1 µM (inactive)
HT-29
  GI50: 7.46 µM (inactive)
Hs-578T
  GI50: 3.88 µM (inactive)
NCI-H522
  GI50: 5.18 µM (inactive)
HCT-15
  GI50: 5.07 µM
MDA-MB-435
  GI50: 3.27 µM (inactive)
CAKI-1
  GI50: 11.9 µM (inactive)
HCC 2998
  GI50: 3.33 µM (inactive)
SK-OV-3
  GI50: 7.71 µM (inactive)
RPMI-8226
  GI50: 2.64 µM (inactive)
PC-3
  GI50: 6.61 µM (inactive)
ACHN
  GI50: 8.73 µM (inactive)
NCI-H460
  GI50: 3.48 µM (inactive)
DU-145
  GI50: 2.85 µM (inactive)
A498
  GI50: 24.9 µM (inactive)
BT-549
  GI50: 5.77 µM (inactive)
M14
  GI50: 10.5 µM (inactive)
UACC-62
  GI50: 5.37 µM (inactive)
HOP-62
  GI50: 26 µM (inactive)
NCI-H23
  GI50: 7.53 µM (inactive)
OVCAR-5
  GI50: 19.7 µM (inactive)
MCF7
  GI50: 4.69 µM (inactive)
UACC-257
  GI50: 15.9 µM (inactive)

## CC(=O)NC1C(OC2C(CO)OC(OCC3OC(n4ccc(N)nc4=O)C(O)C3O)C(NC(C)=O)C2O)OC(CO)C(O)C1O (stereo unspecified)
EKVX
  GI50: > 100 µM (inactive)
HCT-116
  GI50: > 100 µM (inactive)
SF-295
  GI50: > 100 µM (inactive)
UO-31
  GI50: > 100 µM (inactive)
786-0
  GI50: > 100 µM (inactive)
K562
  GI50: > 100 µM (inactive)
OVCAR-8
  GI50: > 91.2 µM (inactive)
SW-620
  GI50: > 100 µM (inactive)
SK-MEL-28
  GI50: > 100 µM (inactive)
SK-MEL-5
  GI50: > 100 µM (inactive)
RXF 393
  GI50: > 100 µM (inactive)
U-251
  GI50: > 100 µM (inactive)
IGROV-1
  GI50: > 100 µM (inactive)
T47D
  GI50: > 100 µM (inactive)
LOX IMVI
  GI50: > 100 µM (inactive)
SR
  GI50: > 100 µM (inactive)
COLO 205
  GI50: > 100 µM (inactive)
KM12
  GI50: > 100 µM (inactive)
SNB-75
  GI50: > 100 µM (inactive)
MOLT-4
  GI50: > 29.4 µM (inactive)
SF-539
  GI50: > 100 µM (inactive)
MDA-MB-231
  GI50: > 100 µM (inactive)
SF-268
  GI50: > 100 µM (inactive)
HOP-92
  GI50: > 100 µM (inactive)
SK-MEL-2
  GI50: > 100 µM (inactive)
OVCAR-3
  GI50: > 100 µM (inactive)
NCI/ADR-RES
  GI50: > 100 µM (inactive)
SN12C
  GI50: > 100 µM (inactive)
A549
  GI50: > 100 µM (inactive)
OVCAR-4
  GI50: > 100 µM (inactive)
SNB-19
  GI50: > 100 µM (inactive)
HL-60
  GI50: > 34.6 µM (inactive)
NCI-H226
  GI50: > 100 µM (inactive)
TK-10
  GI50: > 100 µM (inactive)
HT-29
  GI50: > 100 µM (inactive)
Hs-578T
  GI50: > 100 µM (inactive)
NCI-H522
  GI50: 9.2 µM (inactive)
HCT-15
  GI50: > 100 µM
MDA-MB-435
  GI50: > 100 µM (inactive)
CAKI-1
  GI50: > 100 µM (inactive)
SK-OV-3
  GI50: > 100 µM (inactive)
Malme-3M
  GI50: 5.97 µM (inactive)
RPMI-8226
  GI50: > 100 µM (inactive)
PC-3
  GI50: > 100 µM (inactive)
ACHN
  GI50: 99.8 µM (inactive)
NCI-H460
  GI50: > 89.3 µM (inactive)
DU-145
  GI50: > 100 µM (inactive)
A498
  GI50: > 100 µM (inactive)
BT-549
  GI50: > 100 µM (inactive)
CCRF-CEM
  GI50: 12.1 µM (inactive)
M14
  GI50: > 100 µM (inactive)
UACC-62
  GI50: > 100 µM (inactive)
HOP-62
  GI50: > 100 µM (inactive)
NCI-H23
  GI50: 97.9 µM (inactive)
OVCAR-5
  GI50: > 100 µM (inactive)
MCF7
  GI50: > 94.6 µM (inactive)
UACC-257
  GI50: > 100 µM (inactive)
